In US8697158B2, “Mineral amino acid polysaccharide complex” (Melaleuca, Inc., priority 2008, dated 2014):

How the values were obtained:
[1] = Hydroxyl radical formation (EPR, DMPO spin trapping); conditions: metal 800 μM, DMPO 18.7 mM, H2O2 61 mM, HEPES pH 7.2; relative to AAC
Protocol: The rate of hydroxyl radical formation catalyzed by a complex comprising an iron- or copper-amino acid inulin complex was compared to the iron- or copper-amino acid compound alone.
Mineral (Cu or Fe) was dissolved in 10 mM HEPES buffer (pH 7.2) containing DMPO. Iron and copper were used in the form of amino acid compounds (i.e., glycinates; AAC) and as amino acid inulin complexes (1:9 w/w; AAC/OF). Hydrogen peroxide was added 90 seconds prior to measurement.
The spin trapping reagent—5,5-dimethylpyrroline-N-oxide (DMPO) was used for monitoring hydroxyl radical.
The relative signal amplitudes for DMPO/hydroxyl radical adduct, which can be correlated to the concentration of hydroxyl radical present in the solution, was measured (Table 3).

[2] = Ascorbyl radical kinetics (EPR), iron-catalyzed ascorbic oxidation; conditions: for relative amplitude of the ascorbyl radical signal: iron solution 0.9 mM, ascorbic acid 4.04 mM, HEPES pH 7.2
Protocol: Samples of iron(II) sulfate, iron(II) bis-glycinate (FeAAC), and an iron(II) bis-glycinate inulin complex (FeAAC/OF; ratio 1:10 w/w) were analyzed using EPR spectroscopy to determine their ability to generate the ascorbate radical, i.e. to catalyze ascorbic oxidation. The samples were dissolved in 10 mM HEPES buffer (pH 7.2) to a final concentration 0.9 mM of iron.
The iron solutions were mixed with the ascorbic acid solution, and the mixture was transferred into capillary tubes for measurement. Multiple readings were performed over 30 minutes.
EPR measurements were performed in 50 μL capillary tubes at room temperature using a Bruker ER-200 X-band EPR spectrometer.
The relative amplitudes of the ascorbyl radical signal, which can be correlated to the concentration of ascorbyl radical present in the solution, were measured (Table 2).

[3] = Mineral solubility at conditions close to physiological; conditions: one hour at pH 1-1.2, then one hour at pH 7-7.2; supernatant after centrifugation
Protocol: Two forms of zinc, copper, and iron were tested for solubility at conditions close to physiological. […] Samples, in an amount equivalent to 20 tablets, were suspended in 20 mL of water. The pH was adjusted to 1-1.2 and maintained for one hour, simulating a gastric environment. After the first hour, the pH was adjusted to 7-7.2 and maintained for another hour, simulating an intestinal environment. The product was then centrifuged and the supernatant taken for analysis.

[4] = Copper-mediated oxidation of Trolox (Fenton system, EPR)
Protocol: The one-electron oxidation of Trolox results in the formation of a phenoxyl radical that is readily detected by EPR. All EPR measurements were done in using a Bruker ER-200 X-band EPR spectrometer. Samples (50 μL) in capillary tubes (0.5 mm i.d.) were examined at room temperature.

NCC(=O)[O-].NCC(=O)[O-].[Cu+2] [Cu AAC]
relative signal amplitude for DMPO/hydroxyl radical adduct [1]: 100%

NCC(=O)[O-].NCC(=O)[O-].[Fe+2] [FeAAC, iron(II) bis-glycinate]
stabilization (lifetime) of the ascorbyl radical ([2]; compared with the iron sulfate): longer period of time
relative amplitude of the ascorbyl radical signal ([2]; time 1.5 min): 100%
relative amplitude of the ascorbyl radical signal ([2]; time 3.5 min): 74%
relative amplitude of the ascorbyl radical signal ([2]; time 5.5 min): 65%
relative amplitude of the ascorbyl radical signal ([2]; time 10.0 min): 47%
relative amplitude of the ascorbyl radical signal ([2]; time 14.0 min): 33%
relative amplitude of the ascorbyl radical signal ([2]; time 20.0 min): 19%
relative amplitude of the ascorbyl radical signal ([2]; time 28.0 min): 19%
relative signal amplitude for DMPO/hydroxyl radical adduct [1]: 100%

O=S(=O)([O-])[O-].[Fe+2] [FeSO4, iron(II) sulfate]
relative amplitude of the ascorbyl radical signal ([2]; time 1.5 min): 100%
relative amplitude of the ascorbyl radical signal ([2]; time 3.5 min): 76%
relative amplitude of the ascorbyl radical signal ([2]; time 5.5 min): 64%
relative amplitude of the ascorbyl radical signal ([2]; time 10.0 min): 24%
relative amplitude of the ascorbyl radical signal ([2]; time 14.0 min): 14%
relative amplitude of the ascorbyl radical signal ([2]; time 20.0 min): 10%
relative amplitude of the ascorbyl radical signal ([2]; time 28.0 min): 5%

[O-2].[Zn+2] [Zinc Inorganic Form, zinc oxide]
percent of solubilized mineral [3]: 1.2%

gluconate
EPR signal of the Trolox free radical, reduction compared to CuSO4 [4]: about 15%
